Tests used:
[1] = system: glucocorticoid receptor transactivating and DNA binding domains fused to the ecdysone receptor hinge and ligand binding domains; settings: mammalian cells; cited from earlier work
[2] = target: T1, glucocorticoid/Drosophila ecdysone chimeric receptor (UniProt P04150+P34021); experiment: Maize protoplast GUS reporter assay with pMF6GREcRS and p221.9GRE6; assay type: cell-based; settings: maize protoplasts, reporter plus effector, concentration not given
T1 construct: expressed in transfected cells; host or cells: maize suspension-culture protoplasts
T1 sequence (P04150+P34021 with tags, fused parts or gaps): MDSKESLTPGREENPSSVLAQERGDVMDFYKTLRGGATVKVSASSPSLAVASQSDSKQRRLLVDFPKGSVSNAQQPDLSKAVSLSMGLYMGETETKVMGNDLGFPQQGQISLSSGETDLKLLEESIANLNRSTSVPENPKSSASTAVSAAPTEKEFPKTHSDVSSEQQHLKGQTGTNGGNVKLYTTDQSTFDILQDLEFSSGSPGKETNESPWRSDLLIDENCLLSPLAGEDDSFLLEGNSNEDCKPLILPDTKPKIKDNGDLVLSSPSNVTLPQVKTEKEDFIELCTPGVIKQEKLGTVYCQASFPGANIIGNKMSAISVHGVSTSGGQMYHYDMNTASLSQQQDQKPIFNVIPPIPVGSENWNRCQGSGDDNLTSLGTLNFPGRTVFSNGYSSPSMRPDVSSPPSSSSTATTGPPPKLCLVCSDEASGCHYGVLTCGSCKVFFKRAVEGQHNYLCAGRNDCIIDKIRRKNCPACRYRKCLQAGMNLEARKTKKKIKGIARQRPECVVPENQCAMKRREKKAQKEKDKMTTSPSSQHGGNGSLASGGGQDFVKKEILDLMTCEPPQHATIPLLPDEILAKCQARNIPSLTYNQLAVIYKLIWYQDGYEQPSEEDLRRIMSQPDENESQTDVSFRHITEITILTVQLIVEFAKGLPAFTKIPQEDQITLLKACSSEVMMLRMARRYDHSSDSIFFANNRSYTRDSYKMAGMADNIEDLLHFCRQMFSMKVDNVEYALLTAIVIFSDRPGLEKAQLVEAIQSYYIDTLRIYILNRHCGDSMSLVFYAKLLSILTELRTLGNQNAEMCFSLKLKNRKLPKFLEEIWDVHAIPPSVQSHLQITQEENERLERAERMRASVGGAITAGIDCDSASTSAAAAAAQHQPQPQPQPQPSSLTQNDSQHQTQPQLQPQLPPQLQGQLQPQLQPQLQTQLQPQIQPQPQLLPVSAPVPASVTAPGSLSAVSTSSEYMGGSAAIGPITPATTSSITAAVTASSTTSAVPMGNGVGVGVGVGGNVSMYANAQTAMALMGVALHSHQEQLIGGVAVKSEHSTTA

| SMILES | activity of chimeric receptor as homodimer [1] | chemical induced reporter gene activity / induced levels of expression [2] |
| --- | --- | --- |
| CC(C)(O)CC[C@@H](O)[C@](C)(O)[C@H]1CC[C@@]2(O)C3=CC(=O)[C@@H]4C[C@@H](O)[C@@H](O)C[C@]4(C)[C@H]3CC[C@]12C [20-hydroxyecdysone] | not responsive |  |
| CC(C)(C)N(NC(=O)c1ccccc1)C(=O)c1ccccc1 [RH5849, 1,2-dibenzoyl, 1-tert-butyl hydrazide] |  | no chemical induced reporter gene activity |
